Measured values: US12195427B2, “MASP-2 inhibitors and methods of use” (priority 2018, dated 2025)
Structures can show the parent of a compound that is named as a salt.

Molecular target: MASP-2 CCP2-SP (Homo sapiens (Human), UniProt O00187)
Assay: MASP-2 co-crystallization, X-ray crystallography and structure analysis (H-bonds, van der Waals contacts);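 as to Ligand-pharmacophore element distance, pharmacophore element C2: distance from averaged pharmacophore element to bound ligand; missing value means element absent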;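 as to Ligand-pharmacophore element distance, pharmacophore element C3: distance from averaged pharmacophore element to bound ligand; missing value means element absent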;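 as to Ligand-pharmacophore element distance, pharmacophore element C4: distance from averaged pharmacophore element to bound ligand; missing value means element absent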;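 as to Ligand-pharmacophore element distance, pharmacophore element C5: distance from averaged pharmacophore element to bound ligand; missing value means element absent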
Set-up: van der Waals contact distance, MASP-2 HIS 483 atom CD2 / van der Waals contact distance, MASP-2 HIS 483 atom NE2 / van der Waals contact distance, SER 654 C to compound atom / van der Waals contact distance, SER 654 O to compound atom / van der Waals contact distance, TRP 655 C to compound atom / van der Waals contact distance, MASP-2 GLY 528 atom CA / van der Waals contact distance TRP 655 atom CZ3 / van der Waals contact distance TRP 655 atom N / van der Waals contact distance TRP 655 atom CE3 / van der Waals contact distance GLY 656 atom C / van der Waals contact distance GLY 656 atom CA / van der Waals contact distance GLY 656 atom O / van der Waals contact distance, MASP-2 TYR 607 atom CD1 / van der Waals contact distance, MASP-2 PRO 606 atom O / d(C3,CA1) / d(CA1,N1)2 / d(H4,O1) / d(H4,O2) / d(O1,O2) / d(CA1,O2) / d(CA6,O1) / d(CA6,O2) / d(CA1,C5) / d(O2,H3) / d(N2,C2) / d(CA5,N2) / d(N2,C4) / d(N2,C6) / d(N2,CA3) / d(N2,O3) / d(O4,H2): unit not given beside the values
Conditions: for Ligand-pharmacophore element distance, pharmacophore element C2 / Ligand-pharmacophore element distance, pharmacophore element C3 / Ligand-pharmacophore element distance, pharmacophore element C4 / Ligand-pharmacophore element distance, pharmacophore element C5 / Ligand-pharmacophore element distance, pharmacophore element C6 / Ligand-pharmacophore element distance, pharmacophore element C7 / Ligand-pharmacophore element distance, pharmacophore element CA1 / Ligand-pharmacophore element distance, pharmacophore element CA2 / Ligand-pharmacophore element distance, pharmacophore element CA3 / Ligand-pharmacophore element distance, pharmacophore element CA4 / Ligand-pharmacophore element distance, pharmacophore element CA5 / Ligand-pharmacophore element distance, pharmacophore element CA6: Table A4-1; for a(O1, O2, H3) / a(O1, O2, N2) / a(O2, N2, C2) / a(O2, N2, CA2): Table A6-2 pharmacophore angle
Outline: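 Inhibitor complexes were obtained by soaking crystals of E. coli-derived human MASP-2 CCP2-SP. Synchrotron diffraction at 1.0 wavelength, molecular replacement and partial refinement gave the models; one pose per ligand was chosen for contact analysis.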

[1] = Table A5-1 pharmacophore: distance between elements, S2/S1 region
[2] = Table A5-2 pharmacophore distance, S3/S4 region
[3] = Table A7-1, between pharmacophore elements of the bound compound
[4] = Table A7-2, between pharmacophore elements of the bound compound
[5] = Table A8-6, nearest protein atom in cell to the left

MASP-2 CCP2-SP, sequence (O00187 445-686): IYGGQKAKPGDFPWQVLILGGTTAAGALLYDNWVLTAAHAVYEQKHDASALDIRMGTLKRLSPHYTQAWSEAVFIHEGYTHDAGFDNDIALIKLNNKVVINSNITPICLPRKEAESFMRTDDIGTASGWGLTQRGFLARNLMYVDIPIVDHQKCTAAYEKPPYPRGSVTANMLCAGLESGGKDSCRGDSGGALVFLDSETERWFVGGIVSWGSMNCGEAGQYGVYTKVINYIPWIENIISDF
MASP-2 CCP2-SP, sequence (O00187 364-432 partner): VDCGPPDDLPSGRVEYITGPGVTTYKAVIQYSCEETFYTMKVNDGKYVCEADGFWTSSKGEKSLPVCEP

SMILES: Cc1nc(N)ccc1CNC(=O)[C@H](C)NC(=O)[C@H]1C[C@@H](c2ccccc2)CCN1 [compound 1253, (2R,4S)—N—((S)-1-(((6-Amino-2-methylpyridin-3-yl)methyl)amino)-1-oxopropan-2-yl)-4-phenylpiperidine-2-carboxamide Dihydrochloride]
- H-bond distance to MASP-2 ASP 627 atom OD2 (Table A1 (H-Bonds), ASP 627 OD2): 3.33
- H-bond distance to MASP-2 GLY 656 atom N (Table A1 (H-Bonds), GLY 656 N): 3.23
- H-bond distance to MASP-2 GLY 656 atom O (Table A1 (H-Bonds), GLY 656 O): 2.83
- H-bond distance to MASP-2 SER 628 atom O (Table A1 (H-Bonds), SER 628 O): 3.12
- H-bond distance to MASP-2 SER 654 atom O (Table A1 (H-Bonds), SER 654 O): 2.99
- H-bond distance to MASP-2 SER 657 atom O (Table A1 (H-Bonds), SER 657 O): 2.85
- van der Waals contact distance, MASP-2 HIS 483 atom CD2 (Table A2-1): 3.74
- van der Waals contact distance, MASP-2 HIS 483 atom NE2 (Table A2-1): 3.66
- van der Waals contact distance, MASP-2 PHE 529 atom CE2 (Table A2-3): 3.77
- van der Waals contact distance, MASP-2 amino acid atom to compound atom (Table A2-5: TYR 607 (CE1, CE2, OH), PRO 608 (CD, CG), SER 611 (CA)): 3.73
- van der Waals contact distance, MASP-2 amino acid atom to compound atom (Table A2-7: SER 628 (CB, O, OG)): 3.58
- van der Waals contact distance, VAL 653 CG1 to compound atom (Table A2-11): 3.31
- van der Waals contact distance, TRP 655 CA to compound atom (Table A2-12): 3.41
- van der Waals contact distance TRP 655 atom CE3 (Table A2-13, MASP-2 TRP 655 CE3, compound atom in line below): 3.61
- van der Waals contact distance TRP 655 atom CZ3 (Table A2-13, MASP-2 TRP 655 CZ3): 3.71
- Ligand-pharmacophore element distance, pharmacophore element C2: 0.28
- Ligand-pharmacophore element distance, pharmacophore element C3: 0.07
- Ligand-pharmacophore element distance, pharmacophore element C4: 0
- Ligand-pharmacophore element distance, pharmacophore element C5: 0
- Ligand-pharmacophore element distance, pharmacophore element C6: 0
- Ligand-pharmacophore element distance, pharmacophore element C7: 0
- Ligand-pharmacophore element distance, pharmacophore element CA1: 0.59
- Ligand-pharmacophore element distance, pharmacophore element CA2: 0.23
- Ligand-pharmacophore element distance, pharmacophore element CA3: 0
- Ligand-pharmacophore element distance, pharmacophore element CA4: 0
- Ligand-pharmacophore element distance, pharmacophore element CA5: 0
- Ligand-pharmacophore element distance, pharmacophore element CA6: 0
- d(C3,CA1) [1]: 2.87
- d(CA1,N1)2 [1]: 1.37
- d(CA1,O1) [1]: 4.36
- d(CA1,O2) [1]: 3.83
- d(H4,O1) [1]: 4.38
- d(H4,O2) [1]: 3.69
- d(O1,O2) [1]: 3.39
- d(N2,C2) [2]: 1.46
- d(N2,CA2) [2]: 5.74
- d(O2,H3) [2]: 2.04
- d(O2,N2) [2]: 2.70
- a(C3, CA1, O1) (Table A6-1 pharmacophore angle): 149.95
- a(CA1, O1, O2) (Table A6-1 pharmacophore angle): 105.84
- a(O1, O2, H4) (Table A6-1 pharmacophore angle): 131.28
- a(N1, CA1, O1) b) (Table A6-1 pharmacophore angle, Methyl-amino-pyridine compounds): 174.19
- a(O1, O2, H3): 134.57
- a(O1, O2, N2): 140.99
- a(O2, N2, C2): 130.77
- a(O2, N2, CA2): 155.92
- Pharmacophore torsion angle a(C3, CA1, O1, H4) [3]: 26.20
- Pharmacophore torsion angle a(H4, O1, O2, H3) [3]: 115.64
- Pharmacophore torsion angle a(H4, O1, O2, N2) [3]: 140.24
- Pharmacophore torsion angle a(N1, CA1, O1, H4) [3]: 3.75
- Pharmacophore torsion angle a(O1, H4, O2, CA1) [3]: −82.09
- Pharmacophore torsion angle a(O1, O2, N2, C2) [3]: 120.69
- Pharmacophore torsion angle a(O1, O2, N2, CA2) [4]: 126.24

SMILES: C[C@H](NC(=O)[C@H]1C[C@@H](c2ccccc2)CCN1)C(=O)NCc1cc(Cl)ccc1O.Cl [1078_15]
- Ligand-pharmacophore element distance, pharmacophore element C2: 0.81
- Ligand-pharmacophore element distance, pharmacophore element C3: 0
- Ligand-pharmacophore element distance, pharmacophore element C4: 0
- Ligand-pharmacophore element distance, pharmacophore element C5: 0.43
- Ligand-pharmacophore element distance, pharmacophore element C6: 0
- Ligand-pharmacophore element distance, pharmacophore element C7: 0
- Ligand-pharmacophore element distance, pharmacophore element CA1: 1.56
- Ligand-pharmacophore element distance, pharmacophore element CA2: 0.65
- Ligand-pharmacophore element distance, pharmacophore element CA3: 0
- Ligand-pharmacophore element distance, pharmacophore element CA4: 0
- Ligand-pharmacophore element distance, pharmacophore element CA5: 0
- Ligand-pharmacophore element distance, pharmacophore element CA6: 0
- d(CA1,C5) [1]: 3.13
- d(CA1,O1) [1]: 4.59
- d(CA1,O2) [1]: 4.59
- d(CA1,O4) [1]: 2.74
- d(H4,O1) [1]: 2.66
- d(H4,O2) [1]: 2.49
- d(O1,O2) [1]: 2.93
- d(O4,H2) [1]: 0.97
- d(N2,C2) [2]: 1.45
- d(N2,CA2) [2]: 5.66
- d(O2,H3) [2]: 2.97
- d(O2,N2) [2]: 2.84
- a(C5, CA1, O1) (Table A6-1 pharmacophore angle): 160.41
- a(CA1, O1, O2) (Table A6-1 pharmacophore angle): 108.62
- a(CA1, O4, H2) (Table A6-1 pharmacophore angle): 127.31
- a(O1, CA1, O4) (Table A6-1 pharmacophore angle): 65.89
- a(O1, O2, H4) (Table A6-1 pharmacophore angle): 110.90
- a(O1, O2, H3): 143.22
- a(O1, O2, N2): 147.42
- a(O2, N2, C2): 124.17
- a(O2, N2, CA2): 155.02
- Pharmacophore torsion angle a(C5, CA1, O1, H4) [3]: 19.98
- Pharmacophore torsion angle a(H4, O1, O2, H3) [3]: −124.63
- Pharmacophore torsion angle a(H4, O1, O2, N2) [3]: −117.88
- Pharmacophore torsion angle a(O1, H4, O2, CA1) [3]: −64.96
- Pharmacophore torsion angle a(O1, O2, N2, C2) [3]: 139.14
- Pharmacophore torsion angle a(O1, O2, N2, C2)2 [3]: 139.34
- Pharmacophore torsion angle a(O1, O2, N2, CA2) [4]: 141.63

SMILES: C[C@H](NC(=O)[C@H]1C[C@@H](c2ccccc2)CCN1)C(=O)NCc1cc(Cl)ccc1O.Cl [1078_13]
- Ligand-pharmacophore element distance, pharmacophore element C2: 0.58
- Ligand-pharmacophore element distance, pharmacophore element C3: 0
- Ligand-pharmacophore element distance, pharmacophore element C4: 0
- Ligand-pharmacophore element distance, pharmacophore element C5: 0.47
- Ligand-pharmacophore element distance, pharmacophore element C6: 0
- Ligand-pharmacophore element distance, pharmacophore element C7: 0
- Ligand-pharmacophore element distance, pharmacophore element CA1: 1.62
- Ligand-pharmacophore element distance, pharmacophore element CA2: 0.73
- Ligand-pharmacophore element distance, pharmacophore element CA3: 0
- Ligand-pharmacophore element distance, pharmacophore element CA4: 0
- Ligand-pharmacophore element distance, pharmacophore element CA5: 0
- Ligand-pharmacophore element distance, pharmacophore element CA6: 0
- d(CA1,C5) [1]: 3.12
- d(CA1,O1) [1]: 4.37
- d(CA1,O2) [1]: 4.66
- d(CA1,O4) [1]: 2.76
- d(H4,O1) [1]: 3.14
- d(H4,O2) [1]: 3.66
- d(O1,O2) [1]: 3.25
- d(O4,H2) [1]: 0.98
- d(N2,C2) [2]: 1.47
- d(N2,CA2) [2]: 5.61
- d(O2,H3) [2]: 2.11
- d(O2,N2) [2]: 2.79
- a(C5, CA1, O1) (Table A6-1 pharmacophore angle): 162.99
- a(CA1, O1, O2) (Table A6-1 pharmacophore angle): 115.77
- a(CA1, O4, H2) (Table A6-1 pharmacophore angle): 129.33
- a(O1, CA1, O4) (Table A6-1 pharmacophore angle): 65.06
- a(O1, O2, H4) (Table A6-1 pharmacophore angle): 123.59
- a(O1, O2, H3): 135.66
- a(O1, O2, N2): 146.15
- a(O2, N2, C2): 127.57
- a(O2, N2, CA2): 154.39
- Pharmacophore torsion angle a(C5, CA1, O1, H4) [3]: −7.66
- Pharmacophore torsion angle a(H4, O1, O2, H3) [3]: −157.30
- Pharmacophore torsion angle a(H4, O1, O2, N2) [3]: −162.99
- Pharmacophore torsion angle a(O1, H4, O2, CA1) [3]: −78.80
- Pharmacophore torsion angle a(O1, O2, N2, C2) [3]: 118.91
- Pharmacophore torsion angle a(O1, O2, N2, CA2) [4]: 137.37

SMILES: C[C@H](NC(=O)[C@H](N)C1Cc2ccccc2C1)C(=O)NCc1ccc2c(N)nccc2c1.Cl.Cl [1088_A]
- Ligand-pharmacophore element distance, pharmacophore element C2: 1.75
- Ligand-pharmacophore element distance, pharmacophore element C3: 0
- Ligand-pharmacophore element distance, pharmacophore element C4: 0
- Ligand-pharmacophore element distance, pharmacophore element C5: 0
- Ligand-pharmacophore element distance, pharmacophore element C6: 0
- Ligand-pharmacophore element distance, pharmacophore element C7: 0
- Ligand-pharmacophore element distance, pharmacophore element CA1: 0.4
- Ligand-pharmacophore element distance, pharmacophore element CA2: 0
- Ligand-pharmacophore element distance, pharmacophore element CA3: 0
- Ligand-pharmacophore element distance, pharmacophore element CA4: 0
- Ligand-pharmacophore element distance, pharmacophore element CA5: 0.39
- Ligand-pharmacophore element distance, pharmacophore element CA6: 0
- d(CA1,O1) [1]: 5.33
- d(CA1,O2) [1]: 4.61
- d(H4,O1) [1]: 6.97
- d(H4,O2) [1]: 5.89
- d(O1,O2) [1]: 3.49
- d(CA5,N2) [2]: 5.30
- d(N2,C2) [2]: 3.41
- d(O2,H3) [2]: 3.72
- d(O2,N2) [2]: 2.73
- a(CA1, O1, O2) (Table A6-1 pharmacophore angle): 99.08
- a(O1, O2, H4) (Table A6-1 pharmacophore angle): 149.95
- a(O1, O2, H3): 144.04
- a(O1, O2, N2): 141.09
- a(O2, N2, C2): 141.58
- Pharmacophore torsion angle a(H4, O1, O2, H3) [3]: 49.33
- Pharmacophore torsion angle a(H4, O1, O2, N2) [3]: 120.82
- Pharmacophore torsion angle a(O1, H4, O2, CA1) [3]: −54.60
- Pharmacophore torsion angle a(O1, O2, N2, C2) [3]: 103.40
- Pharmacophore torsion angle a(O1, O2, N2, CA5) [4]: 116.27
- Pharmacophore protein distance to MET_658 (first MET_658 column) (Table A8-6, 6th residue column, nearest protein atom in cell to the left): 3.04
- Pharmacophore protein distance to MET_658 (second MET_658 column) (Table A8-6, 9th residue column, nearest protein atom in cell to the left): 3.12
- Pharmacophore protein distance to GLY_528 [5]: 3.66
- Pharmacophore protein distance to PHE_529 [5]: 2.75
- Pharmacophore protein distance to PRO_608 [5]: 3.74
- Pharmacophore protein distance to SER_611 [5]: 2.71
- Pharmacophore protein distance to TRP_655 (Table A8-6, pharmacophore elements C6, CA3, O3, H1, nearest protein atom in cell to the left): 3.75
